Consider six molecules from US20060241073A1, “Means and methods for counteracting fatty acid accumulation” (priority 2005, published 2006).

For data set [1], the system named is phytanic acid omega-hydroxylase (cytochrome P450) of rat liver microsomes. As to the kind of experiment: Phytanic acid omega-hydroxylation in rat liver microsomes (formation of omega-hydroxyphytanic acid, GC/MS). In kind it is biochemical. The note with it: for effect on the formation of omega-hydroxyphytanic acid: different concentrations of imidazole derivatives (FIG. 4A). Here is the method:
(§1) To this end, Male Wistar rats fed a standard laboratory diet, were fasted overnight before sacrifice and removal of the liver. The livers were rapidly chilled and washed several times in buffer containing 250 mM sucrose, 0.5 mM EDTA, 2 mM MOPS/KOH (final pH 7.4). Subsequently, the livers were minced and homogenized with a Potter S homogenizer (B. Braun, Germany) with a teflon pestle at 500 rpm (5 strokes), followed by centrifugation of the homogenate for 10 min at 550×g. The obtained post-nuclear supernatant was subjected to centrifugation at 22,500×g for 10 min to remove mitochondria and lysosomes. Finally, the microsomal fraction was obtained by centrifugation of the supernatant for 3 h at 32,000×g. The microsomal pellet fraction was taken up in PBS containing 5 mM DTT and divided into small aliquots, which were stored at −80° C. The microsomes were sonicated 3 times for 10 s at 8 Watt before each experiment.
The standard reaction mixture consisted of 100 mM potassium phosphate buffer pH 7.4 and rat liver microsomes (1 mg/ml end concentration) plus phytanic acid dissolved in DMSO (200 μM end concentration, unless indicated otherwise). Reactions were initiated by addition of NADPH at a final concentration of 1 mM. The final reaction volume was 0.2 ml. Reactions were terminated by addition of 0.2 ml 1 M HCl. […] The internal standard (IS, 10 nmol 3-hydroxyheptadecanoic acid in 20 μl ethanol) was added to this aqueous mixture. The samples were extracted twice with 6 ml ethylacetate-diethylether (1:1 v/v). The organic layer was collected and the solvents evaporated under vacuum using a rotary evaporator at room temperature. The residue was dissolved in 4 ml ethylacetate and further dried with MgSO4. After spinning down the MgSO4, the solution was transferred to 4 ml reaction vials and the solvent evaporated under nitrogen. […] TMS ester/ether formation was performed with 40 μl N,O-bis-(trimethylsilyl)trifluoroacetamide (BSTFA) containing 1% trimethylchlorosilane (TMCS) and 10 μl pyridine. The vials were sealed with a Teflon-lined screwcap and incubated at 80° C. for 1 hour. After the incubation the solution could be directly used for GC-MS analysis.
The identity of the substrate, the internal standard, and the reaction product(s) was verified by taking mass spectra of the pertrimethylsilylated derivatives in the scanning electron impact mode.
Based on the experiments described above, I selected the following assay conditions: 0,75 mg/ml methyl-beta-cyclodextrin, 100 mM potassium phosphate (pH 7.6), 1 mM NADPH, and 200 μM phytanic acid. Under these conditions, formation of omega-hydroxyphytanic acid was linear with time up to 60 min, and with protein up to 1 mg/ml (data not shown).
FIG. 4. […] Rat liver microsomes were incubated with phytanic acid in the presence of different concentrations of imidazole derivatives. The inhibitory effect of the imidazole derivatives on the formation of omega-hydroxyphytanic acid (omega-HPA; A) and (omega-1)-hydroxyphytanic acid (B) is shown. The data shown represent means of duplicate experiments.

Data set [2] concerns phytanic acid (omega-1)-hydroxylase (cytochrome P450) of rat liver microsomes. Kind of data set: Phytanic acid (omega-1)-hydroxylation in rat liver microsomes (formation of (omega-1)-hydroxyphytanic acid, GC/MS). In kind it is biochemical. The settings on record: different concentrations up to 100 μM (FIG. 4B). Here is the method:
as §1
The standard reaction mixture consisted of 100 mM potassium phosphate buffer pH 7.4 and rat liver microsomes (1 mg/ml end concentration) plus phytanic acid dissolved in DMSO (200 μM end concentration, unless indicated otherwise). Reactions were initiated by addition of NADPH at a final concentration of 1 mM. The final reaction volume was 0.2 ml. Reactions were terminated by addition of 0.2 ml 1 M HCl. […]
Background: Liver microsomes are a subcellular fraction often used to study metabolism.

Data set [3] relates to phytanic acid omega-hydroxylase (cytochrome P450) of pooled human liver microsomes. As to the kind of experiment: Phytanic acid omega-hydroxylation in pooled human liver microsomes (formation of omega-hydroxyphytanic acid, GC/MS). The note with it: for effect on the formation of omega-hydroxyphytanic acid / Km: pooled human liver microsomes; for effect on the formation of omega-hydroxyphytanic acid: different concentrations of imidazole derivatives (FIG. 7A). Here is the method: (§2) Reactions were initiated by adding NADPH (final concentration 1 mM) and terminated by addition of 0.1 ml 1 M HCl. […] After addition of the internal standard (IS, 2 nmol 3-hydroxyheptadecanoic acid in 20 μl ethanol) the samples were extracted twice with 6 ml ethylacetate-diethylether (1:1 v/v). The organic layers were collected and the solvents evaporated. The residue was dissolved in 4 ml ethylacetate and further dried with anhydrous MgSO4 and again evaporated. […] TMS ester/ether formation was performed by incubating the samples with 40 μl BSTFA containing 1% TMCS and 10 μl pyridine at 80° C. for 1 hour. After the incubation the solution was directly used for GC-MS analysis.
(§3) FIG. 7. […] Pooled human liver microsomes were incubated with phytanic acid in the presence of different concentrations of imidazole derivatives. […] The data shown represent means of duplicate experiments.

Data set [4] deals with phytanic acid omega-hydroxylase (cytochrome P450). As to the kind of experiment: in vitro. The settings on record: human, pH 7.7. Here is the method:
as §2, §3

Data set [5] concerns phytanic acid (omega-1)-hydroxylase (cytochrome P450). As to the kind of experiment: in vitro. The note with it: human, pH 7.7. Here is the method: as §2, §3

SMILES strings stand for the structures. Read-outs that look alike come from different tables or passages of the source.

On to `Clc1ccc(COC(Cn2ccnc2)c2ccc(Cl)cc2Cl)c(Cl)c1` (stereo not drawn) [Miconazole], for which the results for the “effect on the formation of omega-hydroxyphytanic acid” value in data set [1] and in data set [3] were “inhibited” and “inhibit product formation”, respectively. Moreover, in data set [2], the “effect on the formation of (omega-1)-hydroxyphytanic acid” value was “most potent inhibitor”. The IC50 – broadly, the concentration that inhibits the measured activity by half – in data set [4] is 30 µM; in data set [5] it was below 2000 nM.
For `c1ccc(-c2ccc(C(c3ccccc3)n3ccnc3)cc2)cc1` (stereo not drawn) [Bifonazole], the “effect on the formation of omega-hydroxyphytanic acid” value in data set [1] is on record as “most potent inhibitor”; in data set [3], “inhibit product formation”. Also, the values for the IC50 in data set [4] and in data set [5] were 13 µM and below 2000 nM, respectively.
For the molecule `CC(C)CCCC(C)CCCC(C)CCCC(C)CC(=O)O` (stereo not drawn) [phytanic acid, 3,7,11,15-tetramethylhexadecanoic acid], the Km – broadly, the concentration of substrate that gives half-maximal velocity – was 114 ± 9 µM in data set [1] (fixed molar ratio phytanic acid/methyl-beta-cyclodextrin (FIG. 3D), read-out: apparent Km for phytanic acid) and 80 µM in data set [3] (read-out: apparent Km for phytanic acid, estimated as substrate concentration with half maximal omega-hydroxylation activity (FIG. 6D)). The “ratio omega:(omega-1) hydroxylated products” value in data set [1] (four separate experiments) is 2.2±0.2; in data set [3] (pooled human microsomes, four separate experiments) it was 15.4±0.7.
For the molecule `Clc1ccccc1C(c1ccccc1)(c1ccccc1)n1ccnc1` [Clotrimazole], the “effect on the formation of omega-hydroxyphytanic acid” value is given as “inhibited” in data set [1] and “inhibit product formation” in data set [3]. Further, the “effect on the formation of (omega-1)-hydroxyphytanic acid” value in data set [2] was “stimulatory effect at low concentrations with little inhibition at the highest concentrations used”. In addition, the IC50 in data set [4] worked out at 43 µM; in data set [5], 3000 nM.
`NC(=O)C1=CN([C@@H]2O[C@H](COP(=O)(O)OP(=O)(O)OC[C@H]3O[C@@H](n4cnc5c(N)ncnc54)[C@H](OP(=O)(O)O)[C@@H]3O)[C@@H](O)[C@H]2O)C=CC1` [NADPH]: the Michaelis constant (Km) in data set [1] (NADPH regenerating system, Lineweaver-Burke plot (FIG. 3C), read-out: apparent Km for NADPH) was found to be 35 µM; in data set [3] (read-out: Km for NADPH, NADPH-regenerating system, Lineweaver Burke plot (FIG. 6C), means of duplicate experiments), 2 µM.
Take `CC(=O)N1CCN(c2ccc(OCC3COC(Cn4ccnc4)(c4ccc(Cl)cc4Cl)O3)cc2)CC1` (stereo not drawn) [Ketoconazole]: the “effect on the formation of omega-hydroxyphytanic acid” value in data set [1] is “inhibited”.
